US12359173B2, “Serum-free and xeno-free culture medium for expanding mesenchymal stem cells” (NUWACELL BIOTECHNOLOGIES CO., LTD., priority 2023, dated 2025)

Tested on: iMSCs
Assay: iMSC expansion, seeded at 1000 cells/well, day 10 morphology and cell number
Assay type: cell-based
Description: Cryopreserved iMSCs (RC01005, Nuwacell Co., Ltd.) were seeded in 6-well plates at 1000 cells/well in M1 medium to thaw the cells. The medium was replaced 24 h later with 2 ml/well of the following medium: M1; or M2 (5% HPLT) further supplemented with or without one or more growth factors (F: FGF2 (10 ng/ml, Nuwacell Co., Ltd.); P: PDFG-BB (10 ng/ml, Cat. No.: 100-14B-100, Peprotech); T: TGFβ1 (1 ng/ml, Cat. No.: 100-21, Peprotech)) in the absence or presence of hydrocortisone (1 μM, Cat. No.: 4098, Tocris). […] The medium was changed with the same medium every three days. On day 10 of culture, the cells were digested by solase (RP01021, Nuwacell Co., Ltd.) for 3 min and collected, and then centrifugated, and with the supernatant removed, resuspended in the corresponding medium, and the number of iMSC cells was counted by cell viability analyzer (Vi-CELLTMXR, BECKMAN COULTER) (FIG. 5).

Molecule | effect of addition on iMSC proliferation (Example 5, hydrocortisone 1 μM added to M2 (5% HPLT)) | effect of addition to M3 on iMSC growth (Example 13, 4 mg/L dialyzed HSA, 25 μg/ml heparin sodium, FIG. 13)
C[C@]12CCC(=O)C=C1CC[C@@H]1[C@@H]2[C@@H](O)C[C@@]2(C)[C@H]1CC[C@]2(O)C(=O)CO [hydrocortisone] | could promote the iMSC proliferation | 
heparin sodium |  | could further promote iMSC growth
